# Data: US20190315823A1, “SMALL CATIONIC ANTI-BIOFILM AND IDR PEPTIDES” (priority 2013, published 2019)
# Peptide text beside a SMILES is read from it.
# Assays:
# [1] = test system: human peripheral blood mononuclear cells; type: cell-based
# Experimental: FIG. 18. Lack of cytotoxicity of immunomodulatory peptides against human peripheral blood mononuclear cells as determined by the low release of cytosolic lactate dehydrogenase.
# Venous blood (20 ml) from healthy volunteers was collected in Vacutainer® collection tubes containing sodium heparin as an anticoagulant (Becton Dickinson, Mississauga, ON) in accordance with UBC ethical approval and guidelines. Blood was diluted 1:1 with complete RPMI 1640 medium and separated by centrifugation over a Ficoll-Paque® Plus (Amersham Biosciences, Piscataway, N.J., USA) density gradient. White blood cells were isolated from the buffy coat, washed twice in RPMI 1640 complete medium, and the number of peripheral blood mononuclear cells (PBMC) was determined by Trypan blue exclusion. PBMC (5×10^5) were seeded into 12-well tissue culture dishes (Falcon; Becton Dickinson) at 0.75 to 1×10^6 cells/ml at 37° C. in 5% CO2. The above conditions were chosen to mimic conditions for circulating blood monocytes entering tissues at the site of infection via extravasation.
# Following incubation of the cells under various treatment regimens, the tissue culture supernatants were centrifuged at 1000×g for 5 min, then at 10,000×g for 2 min to obtain cell-free samples. […]
# Cytotoxicity was assessed using the Lactate dehydrogenase assay. […] Amount of colour formed is detected as increased absorbance measured at […]. […]
# [2] = test system: Pseudomonas aeruginosa (Pa) biofilm; assay: static abiotic solid surface (microtiter, crystal violet) / Bioflux biofilm inhibition screen; type: cell-based; settings: peptide 10 μg/ml
# Summary of the method: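 Overnight cultures diluted 1/100 were grown in polypropylene microtiter plates in BM2 medium (pH 7, 0.4% glucose, 0.5% Casamino Acids) or Luria Broth, with peptide at varying concentrations added at time zero. After 22-46 h, adherent biofilm was stained with crystal violet and read at 595 nm. Selected peptides were also screened under flow in a Bioflux system.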
# [3] = test system: Klebsiella pneumoniae (Kp) biofilm; type: cell-based; settings: peptide 10 μg/ml
# Experimental: Methods of assessment of anti-biofilm activity—Biofilm formation was initially analyzed using a static abiotic solid surface assay as described elsewhere (de la Fuente-Nunez et al., 2012). Dilutions (1/100) of overnight cultures were incubated in BM2 biofilm-adjusted medium [62 mM potassium phosphate buffer (pH 7), 7 mM (NH4)2SO4, 2 mM MgSO4, 10 μM FeSO4, 0.4% (wt/vol) glucose, 0.5% (wt/vol) Casamino Acids], or a nutrient medium such as Luria Broth, in polypropylene microtiter plates (Falcon, United States) in the absence (control) or presence of peptide. Peptide was added at time zero (prior to adding the diluted, overnight cultures) in varying concentrations, and the decrease in biofilm formation was recorded at 22-46 h for most bacteria. Planktonic cells were removed, biofilm cells adhering to the side of the tubes were stained with crystal violet, and absorbance at 595 nm was measured using a microtiter plate reader (Bio-Tek Instruments Inc., United States). Some peptides were screened against two Gram negative organisms, P. aeruginosa and K. pneumoniae using a Bioflux apparatus (AutoMate Scientific, Berkeley, Calif.; http://www.autom8.com/bioflux_biofilm.html), which allows for the high-throughput, real-time analysis of biofilms.
# [4] = test system: methicillin resistant S. aureus (Sa) biofilm; type: cell-based, Staphylococcus aureus; settings: peptide 5 μg/ml
# [5] = test system: P. aeruginosa biofilm; type: cell-based; settings: concentration that reduced biofilm growth by 50%
# Experimental: (§1) Methods of assessment of anti-biofilm activity—Biofilm formation was initially analyzed using a static abiotic solid surface assay as described elsewhere (de la Fuente-Nunez et al., 2012). […] Planktonic cells were removed, biofilm cells adhering to the side of the tubes were stained with crystal violet, and absorbance at 595 nm was measured using a microtiter plate reader (Bio-Tek Instruments Inc., United States). Some peptides were screened against two Gram negative organisms, P. aeruginosa and K. pneumoniae using a Bioflux apparatus (AutoMate Scientific, Berkeley, Calif.; http://www.autom8.com/bioflux_biofilm.html), which allows for the high-throughput, real-time analysis of biofilms.
# [6] = test system: S. aureus biofilm; type: cell-based; settings: concentration that reduced biofilm growth by 50%
# Experimental: as §1
# [7] = test system: P. aeruginosa biofilms; settings: compound alone; P. aeruginosa
# Experimental: Peptides and various conventional antibiotics were analyzed by checkerboard titration into microtiter trays using CLSI methods (Wiegand, I., K. Hilpert, and R. E. W. Hancock. 2008. Nature Protocols 3:163-175), bacteria added and, after overnight incubation at 37° C., the residual biofilm assessed by the crystal violet method mentioned in the body of the grant, with an A595 of 0.2 considered as 100% biofilm inhibition. The effects of the peptide in reducing the minimal biofilm inhibitory concentration (MBIC) of the antibiotic and vice versa were assessed using the Fractional Inhibitory Concentration (FIC) method whereby ΣFTC=FICA+FICB=(CA/MICA)+(CB/MICB), where MBICA and MBICB are the MBICs of peptide A and antibiotic B alone, respectively, and CA and CB (expressed in μg/ml) are the MICs of the drugs in combination. This conventional clinical microbiology assay is interpreted as follows
# [8] = test system: C. elegans; assay: C. elegans survival, uninfected (peptide toxicity); settings: peptide 20 μg/ml
# Experimental: The C. elegans survival assay was carried out as previously described (Brackman et al., 2011). […] 0.5 ml of this suspension of nematodes was transferred to the wells of a 24-well microtiter plate. An overnight bacterial culture was centrifuged, resuspended in the assay medium, and standardized to 10^8 CFU/ml. Next, 250 μl of this standardized suspension were added to each well, while 250 μl of sterile medium was added to the […]. Peptides were added to the test wells at a final concentration of 20 μg/ml. The assay plates were incubated at 25° C. for up to 2 days. The fraction of dead worms was determined by counting the number of dead worms and the total number of worms in each well, using a dissecting microscope. Peptides were tested at least four times in each assay, and each assay was repeated at least three times (n≥12).
# [9] = test system: G. mellonella; assay: G. mellonella survival, uninfected (peptide toxicity); type: in vivo; settings: peptide 20 μg/10 μl
# Experimental: In brief, prior to injection in G. mellonella, bacterial cells were washed with PBS and then diluted to either 10^4 or 10^5 CFU per 10 μl. A Hamilton syringe was used to inject 10 μl in the G. mellonella last left proleg. The peptides (20 μg/10 μl) were administered by injecting 10 μl into a different proleg within 1 h after injecting the bacteria. Two control groups were used: the first group included uninfected larvae injected with PBS to monitor killing due to physical trauma; the second group included uninfected larvae receiving no treatment at all. Results from experiments in which one or more larvae in either control group died were discarded and the experiments were repeated. To evaluate the toxicity of the peptides, uninfected larvae were injected with peptides. Larvae were placed in the dark at 37° C. and were scored as dead or alive 24 h and 48 h post-infection. […] At least 20 larvae were injected for each treatment. For each treatment, data from at least six independent experiments were combined.
# [10] = test system: Pseudomonas aeruginosa (Pa) biofilm; settings: P. aeruginosa; de la Fuente-Núñez 2012; cited from earlier work
# [11] = test system: P. aeruginosa; settings: de la Fuente-Núñez 2012; cited from earlier work
structure (smiles),measurement,setting,value
CC[C@H](C)[C@H](NC(=O)[C@H](CC(C)C)NC(=O)[C@@H](NC(=O)[C@H](CCCNC(=N)N)NC(=O)[C@@H](NC(=O)[C@@H](NC(=O)[C@H](CCCNC(=N)N)NC(=O)[C@H](CCCNC(=N)N)NC(=O)[C@@H](N)C(C)C)[C@@H](C)CC)C(C)C)C(C)C)C(=O)N[C@@H](CCCNC(=N)N)C(=O)N[C@@H](Cc1c[nH]c2ccccc12)C(=O)N[C@@H](C)C(N)=O [HE8] (H-VRRIVRVLIRWA-NH2),Notes (toxicity),[1],Toxic
CC[C@H](C)[C@H](NC(=O)[C@H](CCCNC(=N)N)NC(=O)[C@@H](NC(=O)[C@H](C)NC(=O)[C@@H](NC(=O)[C@@H](NC(=O)[C@H](CC(C)C)NC(=O)[C@H](CCCNC(=N)N)NC(=O)[C@@H](N)C(C)C)[C@@H](C)CC)C(C)C)C(C)C)C(=O)N[C@@H](Cc1c[nH]c2ccccc12)C(=O)N[C@@H](CCCNC(=N)N)C(=O)N[C@@H](CCCNC(=N)N)C(N)=O [Peptide 1018] (H-VRLIVAVRIWRR-NH2),% Biofilm Inhibition Pa,[2],99%
same,% Biofilm Inhibition Kp,[3],99%
same,% Biofilm Inhibition Sa,[4],67%
same,MBIC50 P. aeruginosa,[5],2.5 µg/mL
same,MBIC50 S. aureus,[6],20 µg/mL
same,Minimal Biofilm Inhibitory Concentration (MBIC),[7],24 µg/mL
same,"C. elegans survival, No infection",[8]; 24 h,97 ± 4%
same,"C. elegans survival, No infection",[8]; 48 h,88 ± 9%
same,"G. mellonella survival, No infection",[9]; 24 h,90 ± 14%
same,"G. mellonella survival, No infection",[9]; 48 h,90 ± 14%
CC[C@H](C)[C@H](NC(=O)[C@H](CCCNC(=N)N)NC(=O)[C@H](Cc1ccccc1)NC(=O)[C@H](CCCNC(=N)N)NC(=O)[C@@H](N)CCCCN)C(=O)N[C@@H](CCCNC(=N)N)C(=O)N[C@H](C(=O)N[C@@H](CCCNC(=N)N)C(=O)N[C@H](C(N)=O)C(C)C)C(C)C [Peptide 1037] (H-KRFRIRVRV-NH2; N-terminus assumed),anti-biofilm activity IC50,[10],5 µg/mL
same,antimicrobial activity MIC,[11],304 µg/mL
